Results: patent US10676438B2, “KCNQ2-5 channel activator” (Ono Pharmaceutical Co., Ltd., priority 2014, dated 2020)
In brackets after ≈: the same amount, converted by molar mass.

Assays:
[1] = Evaluation of stability in human liver microsome; assay type: in vitro ADME; details: 5 μmol/L
Protocol: A test compound (10 mmol/L DMSO solution, 5 μL) was diluted with 50% acetonitrile aqueous solution (195 μL) to prepare 0.25 mmol/L solution.
To a reactor vessel which had been warmed to 37° C. in advance, 0.5 mg/mL of human liver microsome (Xenotech) and 245 μL of 0.1 M phosphate buffer solution (pH 7.4) including NADPH-Co-factor (BD Biosciences) were added, followed by preincubation for five minutes. Then, the above-mentioned test compound solution (5 μL) was added so as to start reaction (final concentration: 5 μmol/L). Immediately after the start, 20 μL was harvested and added to 180 μL of acetonitrile including an internal standard substance (warfarin) to stop the reaction. This solution (20 μL) was stirred with 180 μL of 50% acetonitrile aqueous solution on a plate equipped with a deproteinization filter. Then, the resulting mixture solution was subjected to suction filtration. The filtrate was adopted as a standard sample.
The above-mentioned reaction solution was incubated at 37° C. for 15 minutes, and 20 μL of the solution was added to 180 μL of cooled acetonitrile (including warfarin that is an internal standard substance) to stop the reaction. This solution (20 μL) was stirred with 180 μL of 50% acetonitrile aqueous solution on a plate equipped with a deproteinization filter, and then the resulting mixture solution was subjected to suction filtration. The filtrate was adopted as a reaction sample.
Residual rate (%) was obtained as follows: 1 μL of the sample solution was infused into LC-MS/MS (Discovery Max manufactured by Thermo Scientific), and a quotient obtained by dividing a peak area ratio of the reaction sample (peak area of test compound/peak area of internal standard substance) was divided by the peak area ratio of the standard sample was multiplied by 100.

[2] = test system: urinary bladder extracted from rat; assay: Relaxing action on urinary bladder extracted from rat (rat Magnus test); details: concentration at which tension change rate is -20%; carbachol 1 μM-induced contraction of rat urinary bladder strips
Protocol: Female Jcl Wistar rats (CLEA Japan, Inc., body weight in use: 170 to 200 g) were anesthetized by intraperitoneal administration of about 40 mg/kg of pentobarbital (Somnopentyl, Schering Plough Animal Health Corporation), and killed by bloodletting, followed by abdominal incision to extract the urinary bladder. Immediately, the extracted urinary bladder was immersed in ice-cooled Krebs buffer (Krebs Ringer bicarbonate buffer (Sigma-Aldlich Co.) containing sodium hydrogencarbonate (final concentration: 15 mM) and calcium chloride (final concentration: 2.5 mM)) which had been saturated with a mixed gas (95% O2, 5% CO2).
The urinary bladder bodies were cut in the longitudinal direction to prepare strip specimens (about 10×3 mm) on ice. Immediately, the prepared specimens were suspended in a Magnus tube with 500 mg of tension loaded. The tube was filled with Krebs buffer (37° C.) aerated with a mixed gas. Note here that specimens were prepared within 24 hours after extraction of the tissue.
When one hour or more had passed after the specimen was suspended, 2.5M KCl was added so that the final concentration became 100 mM, specimens showing contraction reaction were used.
Carbachol (a contraction-inducing substance) at the concentration of contraction of 1 μM was used to induce contraction. […] After the contraction reaction was stabilized, a physiological salt solution or the compound of the present invention was added in a cumulative manner from low concentration such that the final concentration became 1, 10, 100 nM, 1 and 10 μM.
The tension (mg) of the extracted urinary bladder was employed as an evaluation parameter. The tension was read by using analysis software WAVE THERMO 1000. Tension after addition of the contraction-inducing substance was set to 0%. The change rate of the tension after addition of the compound of the present invention relative to the tension after addition of the contraction-inducing substance was defined as tension change rate (%). The tension change rate (%) was adopted as an evaluation indicator. The tension change rate (%) is calculated from the following formula. Tension change rate (%)={Tension after addition of compound of the present invention and the like (mg)−Tension before addition of contraction-inducing substance (mg)}/{Tension after addition of contraction-inducing substance (mg)−Tension before addition of contraction-inducing substance (mg)}×100−100
The value at which the tension change rate (%) was −20% was calculated as IC20, and the value was adopted as an indicator of the relaxing action of the extracted urinary bladder.

[3] = Solubility test (DMSO precipitation method, Pharmacopoeia of Japan elution test second solution); assay type: physicochemical; details: aqueous buffer, kinetic from dmso stock; Pharmacopoeia of Japan elution test second solution pH=6.8, room temperature, five hours; quantitation range 5 to 100 μM
Protocol: A calibration curve solution was prepared by diluting a test substance (10 mM DMSO solution) with acetonitrile and adding acetonitrile including an internal standard substance (candesartan) so as to be 0.1, 0.4, and 2 μM.
Sample solution was prepared as follows: 5 μL of the compound of the present invention (10 mM DMSO solution) was added to 495 μL of the Pharmacopoeia of Japan elution test second solution (pH=6.8), and the resulting mixture was stirred at room temperature for five hours. Then, the solution was placed into a solubility filter plate and subjected to suction filtration. The filtrate (20 μL) was diluted with acetonitrile, followed by adding acetonitrile including an internal standard substance ([…]).
The calibration curve and sample solutions in the amount of 5 μL were infused into LC-MS/MS (Discovery Max manufactured by Thermo Scientific) and subjected to quantitation (quantitation range: 5 to 100 μM).

Human KCNQ2/3 channel = Human KCNQ2/3 channel (Homo sapiens (Human), UniProt O43525+O43526); assay: Opening action with respect to KCNQ2/3 channel by depolarization stimulation (thallium influx, FLIPR); assay type: cell-based; details: concentration giving 50% of maximum reaction of retigabine (10 μM); human KCNQ2/3 expression CHO-DHFR- cells; 5 mM potassium and 0.5 mM thallium; read-out: KCNQ2/3 ECrtg50
Protocol: Human KCNQ2/3 expression cells (CHO-DHFR-cells) were seeded in each well of 384 well plate (collagen-coated, black, clear bottom) at 0.5×10^4 cells/50 μL per well, and cultured in a MEM ALPHA medium (containing 10 vol % inactivated (56° C., 30 min) Fetal Bovine Serum and 100 IU/mL Penicillin—100 μg/mL Streptomycin—2 mM L-Glutamine) at 37° C. in 5% CO2 for 18 to 24 hours. The medium in the plate was removed. Then, incubation (room temperature, 60 minutes, light-shielded) was carried out in a loading buffer (prepared by the method described in the manual of FluxOR Thallium Detection Kit (Invitrogen, F10016, F10017)). KCNQ2/3 channel opening action (thallium influx into cells) by the depolarization stimulation (5 mM potassium and 0.5 mM thallium) was measured by FLIPR TETRA (Molecular Devices). The compound of the present invention had been treated five minutes before the depolarization stimulation, and the reaction induced by the depolarization stimulation was measured over time for 180 seconds. The channel opening action of the compound of the present invention was evaluated based on the change amount of the fluorescence intensity from the time before the depolarization stimulation to the time after the passage of 180 seconds. Thus, the concentration (ECrtg50) satisfying 50% of the fluorescence intensity change of maximum reaction (at the time of 10 μM-treatment) of retigabine under this experiment condition was calculated.

hERG channel = hERG channel (Homo sapiens (Human), UniProt Q12809); assay: Evaluation of action on hERG IKr current (patch-clamp); assay type: cell-based; details: HEK293 cell overexpressing hERG, maximum tail current, 10 minutes after application; read-out: IC50 (50% inhibitory activity of hERG channel)
Protocol: Using HEK293 cell overexpressing a human ether-a-go-go-related gene (hERG), the maximum tale current of the hERG IKr current induced by redepolarization pulse subsequent to depolarization pulse was measured by a patch-clamp method.

[4] = human liver microsome 0.5 mg/mL, NADPH, 37° C., 15 minutes

hERG channel, sequence (Q12809 whole entry): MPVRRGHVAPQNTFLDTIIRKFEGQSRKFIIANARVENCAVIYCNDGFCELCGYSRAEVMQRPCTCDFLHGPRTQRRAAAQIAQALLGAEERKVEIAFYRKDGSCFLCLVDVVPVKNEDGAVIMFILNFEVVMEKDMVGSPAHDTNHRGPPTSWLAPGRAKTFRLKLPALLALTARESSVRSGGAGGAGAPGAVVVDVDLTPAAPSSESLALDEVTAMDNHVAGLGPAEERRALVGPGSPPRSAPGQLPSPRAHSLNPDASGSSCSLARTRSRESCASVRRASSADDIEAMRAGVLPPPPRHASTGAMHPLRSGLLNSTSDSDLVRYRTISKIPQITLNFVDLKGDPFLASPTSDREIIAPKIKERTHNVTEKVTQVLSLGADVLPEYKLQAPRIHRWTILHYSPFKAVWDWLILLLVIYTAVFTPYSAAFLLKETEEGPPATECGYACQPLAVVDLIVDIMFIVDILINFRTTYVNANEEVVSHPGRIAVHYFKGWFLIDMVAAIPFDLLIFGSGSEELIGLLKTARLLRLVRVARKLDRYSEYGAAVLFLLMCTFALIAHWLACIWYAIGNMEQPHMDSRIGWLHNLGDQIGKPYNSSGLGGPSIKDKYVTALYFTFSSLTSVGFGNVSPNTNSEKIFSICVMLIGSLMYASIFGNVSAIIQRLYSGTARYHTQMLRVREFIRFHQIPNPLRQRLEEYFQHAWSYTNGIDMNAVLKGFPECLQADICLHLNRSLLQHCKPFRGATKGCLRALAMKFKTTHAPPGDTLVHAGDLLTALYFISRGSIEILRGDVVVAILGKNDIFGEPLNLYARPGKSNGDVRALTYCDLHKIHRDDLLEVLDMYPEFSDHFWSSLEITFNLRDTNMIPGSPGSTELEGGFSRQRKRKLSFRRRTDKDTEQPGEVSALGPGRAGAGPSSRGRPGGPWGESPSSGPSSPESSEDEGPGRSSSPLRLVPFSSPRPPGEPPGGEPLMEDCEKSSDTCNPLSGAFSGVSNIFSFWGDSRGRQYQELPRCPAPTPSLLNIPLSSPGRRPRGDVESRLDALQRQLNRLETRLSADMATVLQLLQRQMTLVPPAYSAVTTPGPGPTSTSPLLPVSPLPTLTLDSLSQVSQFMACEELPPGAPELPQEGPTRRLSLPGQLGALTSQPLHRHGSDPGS

Molecule `C[C@@](O)(c1cc(Cl)c(NC(=O)NCc2nc(C(F)(F)F)no2)c(Cl)c1)C(F)(F)F` [Example 23, 1-{2,6-dichloro-4-[(2R)-1,1,1-trifluoro-2-hydroxy-2-propanyl]phenyl}-3-{[3-(trifluoromethyl)-1,2,4-oxadiazole-5-yl]methyl}urea] has a Residual rate [1, 4] of 100%, an IC20 [2] of 100 nM and a solubility at 5 h [3] of 46 µM (≈ 21.5 µg/mL). For the same molecule, the EC50 (Human KCNQ2/3 channel) was 10 nM.
Molecule `CC(O)(c1cc(Cl)c(NC(=O)NC[C@@H]2CCCO2)c(Cl)c1)C(F)(F)F` (stereo partly drawn) [Example 5 (15), 1-[2,6-dichloro-4-(1,1,1-trifluoro-2-hydroxy-2-propanyl)phenyl]-3-[(2S)-tetrahydro-2-furanylmethyl]urea] has a Residual rate ([1]; human, 15 min, pH 7.4) of 97%, a solubility at 5 h [3] of 90 µM (≈ 36.1 µg/mL) and an EC50 (Human KCNQ2/3 channel) of 2300 nM.
`CC(O)(c1cc(Cl)c(NC(=O)NCCC(F)(F)F)c(Cl)c1)C(F)(F)F` (stereo not drawn) [Example 5 (19), 1-[2,6-dichloro-4-(1,1,1-trifluoro-2-hydroxy-2-propanyl)phenyl]-3-(3,3,3-trifluoropropyl)urea] showed a Residual rate ([1]; human, 15 min, pH 7.4) of 100%, a solubility at 5 h [3] of 76 µM (≈ 31.4 µg/mL) and an EC50 (Human KCNQ2/3 channel) of 100 nM.
In the case of `C[C@@](O)(c1cc(Cl)c(NC(=O)NCc2ccc(C#N)cc2)c(Cl)c1)C(F)(F)F` [Example 22 (15), 1-(4-cyanobenzyl)-3-{2,6-dichloro-4-[(2R)-1,1,1-trifluoro-2-hydroxy-2-propanyl]phenyl}urea], the Residual rate ([1]; human, 15 min, pH 7.4) is reported as 93% and the EC50 (Human KCNQ2/3 channel) is reported as 200 nM.
`CC(O)(c1cc(Cl)c(NC(=O)Cc2ccc(F)cc2)c(Cl)c1)C(F)(F)F` (stereo not drawn) [Example 50 (1), N-[2,6-dichloro-4-(1,1,1-trifluoro-2-hydroxy-2-propanyl)phenyl]-2-(4-fluorophenyl)acetamide] showed a Residual rate ([1]; human, 15 min, pH 7.4) of 96%, a solubility at 5 h [3] of 82 µM (≈ 33.6 µg/mL) and an EC50 (Human KCNQ2/3 channel) of 60 nM. It also gave an IC50 (hERG channel) of over 10000 nM.
`C[C@](O)(c1cc(Cl)c(NC(=O)NCc2nc(C(F)(F)F)no2)c(Cl)c1)C(F)(F)F` [Example 26, 1-{2,6-dichloro-4-[(2S)-1,1,1-trifluoro-2-hydroxy-2-propanyl]phenyl}-3-{[3-(trifluoromethyl)-1,2,4-oxadiazole-5-yl]methyl}urea] showed a Residual rate [1, 4] of 64%, an IC20 [2] of 200 nM and a solubility at 5 h [3] of 59 µM (≈ 27.6 µg/mL). It also gave an EC50 (Human KCNQ2/3 channel) of 40 nM.
In the case of `Cc1cc(C(O)C(F)(F)F)ccc1NC(=O)NCc1ccc(C(F)(F)F)cn1` (stereo not drawn) [Example 60, 1-[2-methyl-4-(2,2,2-trifluoro-1-hydroxyethyl)phenyl]-3-{[5-(trifluoromethyl)-2-pyridinyl]methyl}urea], the Residual rate ([1]; human, 15 min, pH 7.4) is reported as 98% and the EC50 (Human KCNQ2/3 channel) is reported as 1700 nM.
Work on `C[C@@H](NC(=O)Nc1c(Cl)cc(C(C)(O)C(F)(F)F)cc1Cl)C1CC1` (stereo partly drawn) [Example 5 (20), 1-[(1R)-1-cyclopropylethyl]-3-[2,6-dichloro-4-(1,1,1-trifluoro-2-hydroxy-2-propanyl)phenyl]urea] yielded a Residual rate ([1]; human, 15 min, pH 7.4) of 91%, a solubility at 5 h [3] of 100 µM (≈ 38.5 µg/mL) and an EC50 (Human KCNQ2/3 channel) of 500 nM.
In the case of `C[C@](O)(c1cc(Cl)c(NC(=O)NCc2ccc(OCC(F)(F)F)nc2)c(Cl)c1)C(F)(F)F` [Example 25 (6), 1-{2,6-dichloro-4-[(2S)-1,1,1-trifluoro-2-hydroxy-2-propanyl]phenyl}-3-{[6-(2,2,2-trifluoroethoxy)-3-pyridinyl]methyl}urea], the Residual rate ([1]; human, 15 min, pH 7.4) is reported as 73%, the solubility at 5 h [3] is reported as 40 µM (≈ 20.2 µg/mL) and the EC50 (Human KCNQ2/3 channel) is reported as 60 nM.
For `CC(O)(c1cc(Cl)c(NC(=O)NCc2ccc(C(F)(F)F)cn2)c(Cl)c1)C(F)F` (stereo not drawn) [Example 75, 1-[2,6-dichloro-4-(1,1-difluoro-2-hydroxy-2-propanyl)phenyl]-3-{[5-(trifluoromethyl)-2-pyridinyl]methyl}urea], the Residual rate ([1]; human, 15 min, pH 7.4) was 100% and the EC50 (Human KCNQ2/3 channel) was 400 nM.
For `C[C@@](O)(c1cc(Cl)c(NC(=O)NCc2ccc(Oc3ccc(F)cc3)cc2)c(Cl)c1)C(F)(F)F` [Example 22 (16), 1-{2,6-dichloro-4-[(2R)-1,1,1-trifluoro-2-hydroxy-2-propanyl]phenyl}-3-[4-(4-fluorophenoxyl)benzyl]urea], the Residual rate ([1]; human, 15 min, pH 7.4) was 94% and the EC50 (Human KCNQ2/3 channel) was 4 nM.
For `O=C(NCc1nc(C(F)(F)F)no1)Nc1c(Cl)cc([C@H](O)C(F)(F)F)cc1Cl` [Example 35 (1), 1-{2,6-dichloro-4-[(1S)-2,2,2-trifluoro-1-hydroxyethyl]phenyl}-3-{[3-(trifluoromethyl)-1,2,4-oxadiazole-5-yl]methyl}urea], the Residual rate ([1]; human, 15 min, pH 7.4) was 100%, the IC20 [2] was 20 nM and the solubility at 5 h [3] was 100 µM (≈ 45.3 µg/mL). For the same molecule, the EC50 (Human KCNQ2/3 channel) was 8 nM.
With `CC(O)(c1cc(Cl)c(NC(=O)NCc2cc3cc(F)ccc3[nH]2)c(Cl)c1)C(F)(F)F` (stereo not drawn) [Example 5 (13), 1-[2,6-dichloro-4-(1,1,1-trifluoro-2-hydroxy-2-propanyl)phenyl]-3-[(5-fluoro-1H-indole-2-yl)methyl]urea] the Residual rate ([1]; human, 15 min, pH 7.4) was 75%, the solubility at 5 h [3] was 81 µM (≈ 37.6 µg/mL) and the EC50 (Human KCNQ2/3 channel) was 600 nM.
For `O=C(NCc1nc(C(F)(F)F)no1)Nc1c(Cl)cc([C@@H](O)C(F)(F)F)cc1Cl` [Example 32 (1), 1-{2,6-dichloro-4-[(1R)-2,2,2-trifluoro-1-hydroxyethyl]phenyl}-3-{[3-(trifluoromethyl)-1,2,4-oxadiazole-5-yl]methyl}urea], the IC20 [2] was 20 nM, the solubility at 5 h [3] was 100 µM (≈ 45.3 µg/mL) and the EC50 (Human KCNQ2/3 channel) was 7 nM.
